# According to publication PMC6934184, “Selective DNA-PKcs inhibition extends the therapeutic index of localized radiotherapy and chemotherapy” (The Journal of Clinical Investigation, 2019):
# Target: T1, AKT1 (PKB alpha) (Homo sapiens, UniProt P31749)
# T1 construct: purchased Thermo Fisher Scientific (Life Technologies) SelectScreen
# Assay: SelectScreen Z'LYTE
# Assay type: biochemical
# Outline: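 Percent values come from Thermo SelectScreen profiling of NU5455, combining activity and binding assays. CSF1R was run in Z'LYTE format at Km app ATP, and CAMK1 in Adapta format with ATP listed at 10.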
# T1 sequence (P31749 whole entry): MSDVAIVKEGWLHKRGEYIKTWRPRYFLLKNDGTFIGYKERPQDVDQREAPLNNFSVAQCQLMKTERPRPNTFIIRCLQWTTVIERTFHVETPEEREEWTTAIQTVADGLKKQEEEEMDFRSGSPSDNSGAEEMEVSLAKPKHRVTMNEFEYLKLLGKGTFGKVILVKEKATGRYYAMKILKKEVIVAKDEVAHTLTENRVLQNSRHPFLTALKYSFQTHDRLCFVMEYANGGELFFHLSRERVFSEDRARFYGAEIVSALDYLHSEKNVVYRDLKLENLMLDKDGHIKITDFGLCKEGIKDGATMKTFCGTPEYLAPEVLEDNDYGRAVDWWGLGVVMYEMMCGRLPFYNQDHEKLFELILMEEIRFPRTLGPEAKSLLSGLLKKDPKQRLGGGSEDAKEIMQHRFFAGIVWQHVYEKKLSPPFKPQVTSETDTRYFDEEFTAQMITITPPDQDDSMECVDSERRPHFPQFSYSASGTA
structure (smiles),measurement,value
CN(C(=O)CN1CCOCC1)c1ccc2sc3c(-c4cccc5c(=O)cc(N6CC7CCC(C6)O7)oc45)cccc3c2c1 [NU5455],inhibition at 1 µM,0.5%
